US11564923B2, “Compounds and pharmaceutical compositions thereof for the treatment of inflammatory disorders” (Galapagos NV, priority 2017, dated 2023)
pIC50: −log10 of the molar value.

Legend:
[1] = biological target: T1, Recombinant human JAK1 (catalytic domain, amino acids 866-1154) (Homo sapiens, UniProt P23458); assay: JAK1 inhibition assay; assay type: biochemical; settings: read-out: JAK1 potency IC50
T1 construct: catalytic domain, amino acids 866-1154

[2] = biological target: T2, Recombinant human JAK2 (catalytic domain, amino acids 808-1132) (Homo sapiens, UniProt O60674); assay: JAK2 inhibition assay; assay type: biochemical; settings: read-out: JAK2 potency IC50; also: 0.7 µM ATP
T2 construct: catalytic domain, amino acids 808-1132

[3] = biological target: Recombinant human JAK3 catalytic domain (amino acids 781-1124) (Homo sapiens, UniProt P52333); assay: JAK3 inhibition assay; assay type: biochemical
Summary of the method: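 Radiometric kinase reaction run 45 min at 30° C., stopped with phosphoric acid; activity as vehicle cpm minus 10 μM staurosporine cpm.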

[4] = biological target: T3, Recombinant human TYK2 catalytic domain (amino acids 871-1187) (Homo sapiens, UniProt P29597); assay: TYK2 radioactive assay polyGT substrate; assay type: biochemical; also: 0.1 µM ATP
T3 construct: catalytic domain (amino acids 871-1187)
T3 sequence (P29597 871-1187): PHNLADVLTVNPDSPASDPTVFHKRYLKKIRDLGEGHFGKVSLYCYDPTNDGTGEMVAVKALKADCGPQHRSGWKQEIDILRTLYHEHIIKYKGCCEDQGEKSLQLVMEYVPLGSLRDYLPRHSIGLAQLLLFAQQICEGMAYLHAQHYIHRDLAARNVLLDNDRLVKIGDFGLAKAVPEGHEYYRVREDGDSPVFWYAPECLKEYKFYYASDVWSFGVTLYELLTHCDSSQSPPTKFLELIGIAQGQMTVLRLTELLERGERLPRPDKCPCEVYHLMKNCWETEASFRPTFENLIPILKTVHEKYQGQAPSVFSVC
Summary of the method: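 Reaction at 30° C. for 120 min, ended with 150 mM phosphoric acid, washed, counted; percent inhibition scaled between vehicle and 10 μM staurosporine cpm.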

[5] = tested on: IFNα activation of STAT1 in PBMC; assay: IFNα activation of STAT1 in PBMC; assay type: cell-based; settings: Homo sapiens; IFNα activation of STAT1 in PBMC; average IC50; read-out: IFNα signaling inhibitory potency IC50
Summary of the method: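 Human PBMC, with red cells lysed by NH4Cl, were pre-treated with compound for 30 min at 37 °C and 5% CO2. They were then stimulated for 30 min with recombinant human IFNα at 5 ng/mL final.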

T1 sequence (P23458 866-1154): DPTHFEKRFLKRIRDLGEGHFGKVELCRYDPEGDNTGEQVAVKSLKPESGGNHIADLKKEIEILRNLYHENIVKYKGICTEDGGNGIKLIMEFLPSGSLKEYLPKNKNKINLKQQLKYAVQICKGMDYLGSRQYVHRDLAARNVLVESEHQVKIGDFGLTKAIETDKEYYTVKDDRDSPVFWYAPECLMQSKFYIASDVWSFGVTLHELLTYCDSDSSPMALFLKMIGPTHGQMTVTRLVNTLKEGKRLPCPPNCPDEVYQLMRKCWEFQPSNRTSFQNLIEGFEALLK
Sequence of Recombinant human JAK3 catalytic domain (amino acids 781-1124) (P52333 781-1124): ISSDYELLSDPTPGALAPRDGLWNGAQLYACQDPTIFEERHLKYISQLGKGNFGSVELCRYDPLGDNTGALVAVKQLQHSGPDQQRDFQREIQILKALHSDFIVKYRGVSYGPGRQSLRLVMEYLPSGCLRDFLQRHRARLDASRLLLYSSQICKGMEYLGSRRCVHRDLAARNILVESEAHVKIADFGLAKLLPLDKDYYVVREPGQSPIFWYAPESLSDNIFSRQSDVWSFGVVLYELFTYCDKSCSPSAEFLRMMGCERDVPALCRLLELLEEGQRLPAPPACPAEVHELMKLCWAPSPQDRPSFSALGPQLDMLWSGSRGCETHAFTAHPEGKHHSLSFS
T2 sequence (O60674 808-1132): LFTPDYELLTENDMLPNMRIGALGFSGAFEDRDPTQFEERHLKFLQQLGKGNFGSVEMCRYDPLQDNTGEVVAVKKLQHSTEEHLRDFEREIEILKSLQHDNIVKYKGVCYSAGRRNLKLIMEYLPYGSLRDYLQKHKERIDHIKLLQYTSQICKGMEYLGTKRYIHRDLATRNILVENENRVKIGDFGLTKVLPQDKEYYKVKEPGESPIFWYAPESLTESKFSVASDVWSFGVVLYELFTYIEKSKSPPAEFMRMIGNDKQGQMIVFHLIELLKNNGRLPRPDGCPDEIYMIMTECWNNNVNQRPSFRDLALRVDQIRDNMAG

pIC50 [1]	pIC50 [2]	pIC50 [3]	pIC50 [4]	Structure (SMILES)	pIC50 [5]
6.81	7.17	5.83	8.00	Cc1cc(C(F)(F)F)ncc1Oc1cc(Nc2cc(N)ncn2)c2ncn(C)c2n1 [Compound 1, N-[3-Methyl-5-(4-methyl-6-trifluoromethyl-pyridin-3-yloxy)-3H-imidazo[4,5-b]pyridin-7-yl]-pyrimidine-4,6-diamine]	7.07
7.24	7.79	7.11	8.30	CC(C)C(Nc1cc(Nc2cc(N)ncn2)c2ncn(C)c2n1)C(F)(F)F (centres unmarked) [Compound 93, N7-(6-aminopyrimidin-4-yl)-3-methyl-N5-[2-methyl-1-(trifluoromethyl)propyl)imidazo[4,5-b]pyridine-5,7-diamine]	7.19
8.28	8.85	6.72	9.28	Cc1cc(C#N)ncc1N(c1cc(Nc2cc(N)ncn2)c2ncn(C)c2n1)C1CC1 [Compound 88, 5-[[7-[(6-aminopyrimidin-4-yl)amino]-3-methyl-imidazo[4,5-b]pyridin-5-yl]-cyclopropyl-amino]-4-methyl-pyridine-2-carbonitrile]	7.85
8.02	8.93	7.89	9.00	Cn1cnc2c(Nc3ccc(S(C)(=O)=O)cn3)cc(NC(C3CC3)C(F)(F)F)nc21 (centres unmarked) [Compound 92, N5-(1-cyclopropyl-2,2,2-trifluoro-ethyl)-3-methyl-N7-(5-methylsulfonyl-2-pyridyl)imidazo[4,5-b]pyridine-5,7-diamine]	7.17
7.21	7.16	5.88	8.22	Cc1cc(C#N)ncc1Oc1cc(Nc2ccc(S(=O)(=O)C3CC3)cc2)c2ncn(C)c2n1 [Compound 69, 5-[7-(4-cyclopropylsulfonylanilino)-3-methyl-imidazo[4,5-b]pyridin-5-yl]oxy-4-methyl-pyridine-2-carbonitrile]	7.05
6.95	6.76	5.56	7.81	Cc1cc(C#N)ncc1Oc1cc(Nc2ccc(S(=O)(=O)C(F)F)cc2)c2ncn(C)c2n1 [Compound 68, 5-[7-[4-(difluoromethylsulfonyl)anilino]-3-methyl-imidazo[4,5-b]pyridin-5-yl]oxy-4-methyl-pyridine-2-carbonitrile]	6.89
7.29	7.55	6.59	8.47	Cc1cc(C#N)ncc1Nc1cc(Nc2ccc(C(=O)N(C)C)cn2)c2ncn(C)c2n1 [Compound 67, 6-[[5-[(6-cyano-4-methyl-3-pyridyl)amino]-3-methyl-imidazo[4,5-b]pyridin-7-yl]amino]-N,N-dimethyl-pyridine-3-carboxamide]	7.29
